{"source": "ChEMBL document CHEMBL4627304", "about": "“DNA sequence-specific ligands. XVIII. Synthesis, physico-chemical properties; genetic, virological, and biochemical studies of fluorescent dimeric bisbenzimidazoles DBPA(n)” (Bioorg Med Chem, 2020)", "key": {"[1]": {"target": "Human immunodeficiency virus type 1 integrase (Human immunodeficiency virus 1, UniProt Q7ZJM1)", "sequence (Q7ZJM1 whole entry)": "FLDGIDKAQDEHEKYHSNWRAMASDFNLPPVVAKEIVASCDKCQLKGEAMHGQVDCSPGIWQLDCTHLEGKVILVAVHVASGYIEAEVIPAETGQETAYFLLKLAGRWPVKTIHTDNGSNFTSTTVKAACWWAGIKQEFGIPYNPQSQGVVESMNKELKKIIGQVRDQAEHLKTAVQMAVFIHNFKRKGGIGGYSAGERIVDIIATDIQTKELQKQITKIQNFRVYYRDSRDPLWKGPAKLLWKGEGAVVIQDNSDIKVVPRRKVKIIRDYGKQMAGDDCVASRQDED", "assay": "Inhibition of recombinant HIV1 integrase expressed in Escherichia coli Rosetta assessed as reduction in 3' end processing activity using [32P]-labelled U5B/U5A DNA as substrate measured after 2 hrs by polyacrylamide gel electrophoresis method"}, "Aliivibrio logei [2]": {"test_system": "Aliivibrio logei", "assay": "Binding affinity to Aliivibrio logei H-NS dependent Pr2 promoter assessed as luminescence intensity measured after 3 hrs by bioluminescence assay relative to control"}, "Aliivibrio logei [3]": {"test_system": "Aliivibrio logei", "assay": "Binding affinity to Aliivibrio logei H-NS dependent Pr1 promoter assessed as luminescence intensity measured after 3 hrs by bioluminescence assay relative to control"}, "[4]": {"assay": "Cytotoxicity against human NKE cells assessed as reduction in cell viability by MTT assay", "type": "cell-based"}, "Aliivibrio fischeri [5]": {"test_system": "Aliivibrio fischeri", "assay": "Binding affinity to Aliivibrio fischeri H-NS dependent Prf promoter assessed as luminescence intensity measured after 3 hrs by bioluminescence assay relative to control"}, "Human alphaherpesvirus 1": {"test_system": "Human alphaherpesvirus 1", "assay": "Antiviral activity against Herpes simplex virus 1 infected in African green monkey vero cells assessed as reduction in plaque formation treated 1 hr post viral infection by plaque reduction assay", "type": "functional, organism-based", "details": "Human alphaherpesvirus 1, Vero"}, "[6]": {"assay": "Drug penetration in human HCT116 cells nucleus at 200 uM measured after 2 days by fluorescence microscopy", "type": "ADME, subcellular", "details": "hct-116, 48 h"}, "HCT-116": {"test_system": "HCT-116", "assay": "Cytotoxicity against human HCT116 cells assessed as reduction in cell viability by MTT assay", "type": "cell-based"}, "Calf thymus DNA [7]": {"test_system": "Calf thymus DNA", "assay": "Binding affinity to calf thymus DNA assessed as hyperchromic effect by UV-Vis spectroscopy", "type": "nucleic-acid assay", "details": "Bos taurus"}, "[8]": {"assay": "(§1) Selectivity index, ratio of CC50 for cytotoxicity against African green monkey Vero cells assessed as reduction in cell viability measured after 72 hrs by MTT assay to EC50 for antiviral activity against Herpes simplex virus 1 infected in African green monkey vero cells assessed as reduction in plaque formation treated 1 hr post viral infection", "type": "toxicity, cell-based", "details": "read-out: Ratio CC50/EC50"}, "Aliivibrio fischeri [9]": {"test_system": "Aliivibrio fischeri", "assay": "Binding affinity to Aliivibrio fischeri H-NS dependent PluxC promoter assessed as luminescence intensity measured after 3 hrs by bioluminescence assay relative to control"}, "MCF7": {"test_system": "MCF7", "assay": "Cytotoxicity against human MCF7 cells assessed as reduction in cell viability by MTT assay", "type": "cell-based"}, "[10]": {"assay": "Solubility of the compound in water", "type": "physicochemical", "details": "buffer"}, "Calf thymus DNA [11]": {"test_system": "Calf thymus DNA", "assay": "Binding affinity to calf thymus DNA assessed as appearance of positive band by cholesteric liquid crystal dispersion-based circular dichroism method", "type": "nucleic-acid assay", "details": "Bos taurus"}, "[12]": {"assay": "as §1, with “Vero” for “vero”, “pretreated with compound for” for “treated”, “followed by” for “post”, “infection at 0.01 PFU/cells for 1 hr by plaque reduction assay” for “infection”", "type": "toxicity, cell-based", "details": "read-out: Ratio CC50/EC50"}, "Calf thymus DNA [13]": {"test_system": "Calf thymus DNA", "assay": "Binding affinity to calf thymus DNA by fluorescence spectra analysis", "type": "nucleic-acid assay", "details": "Bos taurus"}, "[14]": {"target": "T1, Transcriptional activator protein LuxR (Aliivibrio fischeri) (UniProt P12746)", "T1 sequence (whole entry)": "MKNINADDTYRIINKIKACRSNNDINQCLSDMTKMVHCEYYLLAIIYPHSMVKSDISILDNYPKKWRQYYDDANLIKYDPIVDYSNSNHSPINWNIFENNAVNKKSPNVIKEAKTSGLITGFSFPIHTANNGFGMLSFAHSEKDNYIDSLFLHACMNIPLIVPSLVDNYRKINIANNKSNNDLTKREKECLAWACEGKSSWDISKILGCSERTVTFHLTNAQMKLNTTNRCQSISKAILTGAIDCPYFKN", "assay": "(§2) Inhibition of Aliivibrio fischeri LuxR quorum sensing system expressed in Escherichia coli MG1655 pVFR1 harboring Prf promoter assessed as reduction in LuxR transcriptional activity by measuring Lux gene expression in presence of LuxR protein activator and presence of 10^-8 M AHL by bioluminescence assay relative to control"}, "[15]": {"target": "T1, Transcriptional activator protein LuxR (Aliivibrio fischeri)", "assay": "as §2, with “10^-7” for “10^-8”"}, "[16]": {"target": "T1, Transcriptional activator protein LuxR (Aliivibrio fischeri)", "assay": "as §2, with “and absence” for “and presence”, “of” for “of 10^-8 M”"}, "[17]": {"target": "T1, Transcriptional activator protein LuxR (Aliivibrio fischeri)", "assay": "as §2, with “10^-6” for “10^-8”"}}, "note": "Calls of active or inactive are those of the source. No cut-off for these calls is given here.", "data": [{"smiles": "CN1CCN(c2ccc3nc(-c4ccc5nc(CNC(=O)CCCCN6CCN(CCCCC(=O)NCc7nc8ccc(-c9nc%10ccc(N%11CCN(C)CC%11)cc%10[nH]9)cc8[nH]7)CC6)[nH]c5c4)[nH]c3c2)CC1", "values": [{"measurement": "IC50", "setting": "[1]", "value": 3.9, "unit": "µM"}]}, {"smiles": "CN1CCN(c2ccc3nc(-c4ccc5nc(CNC(=O)CCN6CCN(CCC(=O)NCc7nc8ccc(-c9nc%10ccc(N%11CCN(C)CC%11)cc%10[nH]9)cc8[nH]7)CC6)[nH]c5c4)[nH]c3c2)CC1", "values": [{"measurement": "IC50", "setting": "[1]", "value": 7, "unit": "µM"}]}, {"smiles": "CN1CCN(c2ccc3nc(-c4ccc5nc(CNC(=O)CCCN6CCN(CCCC(=O)NCc7nc8ccc(-c9nc%10ccc(N%11CCN(C)CC%11)cc%10[nH]9)cc8[nH]7)CC6)[nH]c5c4)[nH]c3c2)CC1", "values": [{"measurement": "IC50", "setting": "[1]", "value": 9.9, "unit": "µM"}]}, {"smiles": "CN(C)CCCNC(=O)c1ccc2nc(-c3ccc4nc(CNC(=O)CCCCN5CCN(CCCCC(=O)NCc6nc7ccc(-c8nc9ccc(C(=O)NCCCN(C)C)cc9[nH]8)cc7[nH]6)CC5)[nH]c4c3)[nH]c2c1", "values": [{"measurement": "IC50", "setting": "[1]", "value": 1.1, "unit": "µM"}, {"measurement": "Flu intensity", "setting": "Aliivibrio logei [2]", "value": 1800}, {"measurement": "Flu intensity", "setting": "Aliivibrio logei [3]", "value": 1000}, {"measurement": "IC50", "setting": "[4]", "value": "> 500", "unit": "µM"}, {"measurement": "Flu intensity", "setting": "Aliivibrio fischeri [5]", "value": 4300}, {"measurement": "EC50", "setting": "Human alphaherpesvirus 1", "value": 31, "unit": "µg/mL"}, {"measurement": "Drug uptake", "setting": "[6]", "value": "Active"}, {"measurement": "IC50", "setting": "HCT-116", "value": "> 500", "unit": "µM"}, {"measurement": "Activity", "setting": "Calf thymus DNA [7]", "value": "Active"}, {"measurement": "selectivity ratio at 72 h", "setting": "[8]", "value": 34}, {"measurement": "Flu intensity", "setting": "Aliivibrio fischeri [9]", "value": 3500}, {"measurement": "IC50", "setting": "MCF7", "value": "> 500", "unit": "µM"}, {"measurement": "solubility", "setting": "[10]", "value": "Soluble"}, {"measurement": "Activity", "setting": "Calf thymus DNA [11]", "value": "Active"}]}, {"smiles": "Nc1nc2c(ncn2COCCO)c(=O)[nH]1", "note": "[ACYCLOVIR]", "values": [{"measurement": "EC50", "setting": "Human alphaherpesvirus 1", "value": 1.2, "unit": "µg/mL"}, {"measurement": "selectivity ratio at 72 h", "setting": "[8]", "value": 916}, {"measurement": "selectivity ratio at 72 h", "setting": "[12]", "value": 86}]}, {"smiles": "CN(C)CCCNC(=O)c1ccc2nc(-c3ccc4nc(CNC(=O)CN5CCN(CC(=O)NCc6nc7ccc(-c8nc9ccc(C(=O)NCCCN(C)C)cc9[nH]8)cc7[nH]6)CC5)[nH]c4c3)[nH]c2c1", "values": [{"measurement": "IC50", "setting": "[1]", "value": 2.1, "unit": "µM"}, {"measurement": "Flu intensity", "setting": "Aliivibrio logei [2]", "value": 18000}, {"measurement": "Flu intensity", "setting": "Aliivibrio logei [3]", "value": 1700}, {"measurement": "IC50", "setting": "[4]", "value": "> 200", "unit": "µM"}, {"measurement": "Flu intensity", "setting": "Aliivibrio fischeri [5]", "value": 4100}, {"measurement": "EC50", "setting": "Human alphaherpesvirus 1", "value": 16.7, "unit": "µg/mL"}, {"measurement": "Drug uptake", "setting": "[6]", "value": "Active"}, {"measurement": "IC50", "setting": "HCT-116", "value": "> 200", "unit": "µM"}, {"measurement": "selectivity ratio at 72 h", "setting": "[8]", "value": 34}, {"measurement": "Flu intensity", "setting": "Aliivibrio fischeri [9]", "value": 38000}, {"measurement": "selectivity ratio at 72 h", "setting": "[12]", "value": 5750}, {"measurement": "IC50", "setting": "MCF7", "value": "> 200", "unit": "µM"}, {"measurement": "solubility", "setting": "[10]", "value": "Soluble"}]}, {"smiles": "CN(C)CCCNC(=O)c1ccc2nc(-c3ccc4nc(CNC(=O)CCCN5CCN(CCCC(=O)NCc6nc7ccc(-c8nc9ccc(C(=O)NCCCN(C)C)cc9[nH]8)cc7[nH]6)CC5)[nH]c4c3)[nH]c2c1", "values": [{"measurement": "IC50", "setting": "[1]", "value": 1.8, "unit": "µM"}, {"measurement": "Flu intensity", "setting": "Aliivibrio logei [2]", "value": 50000}, {"measurement": "Flu intensity", "setting": "Aliivibrio logei [3]", "value": 3300}, {"measurement": "IC50", "setting": "[4]", "value": "> 500", "unit": "µM"}, {"measurement": "Flu intensity", "setting": "Aliivibrio fischeri [5]", "value": 4400}, {"measurement": "EC50", "setting": "Human alphaherpesvirus 1", "value": 15, "unit": "µg/mL"}, {"measurement": "Drug uptake", "setting": "[6]", "value": "Active"}, {"measurement": "IC50", "setting": "HCT-116", "value": "> 500", "unit": "µM"}, {"measurement": "Activity", "setting": "Calf thymus DNA [13]", "value": "Active"}, {"measurement": "selectivity ratio at 72 h", "setting": "[8]", "value": 70}, {"measurement": "Flu intensity", "setting": "Aliivibrio fischeri [9]", "value": 17000}, {"measurement": "selectivity ratio at 72 h", "setting": "[12]", "value": 95}, {"measurement": "IC50", "setting": "MCF7", "value": "> 500", "unit": "µM"}, {"measurement": "solubility", "setting": "[10]", "value": "Soluble"}]}, {"smiles": "CN(C)CCCNC(=O)c1ccc2nc(-c3ccc4nc(CNC(=O)CCN5CCN(CCC(=O)NCc6nc7ccc(-c8nc9ccc(C(=O)NCCCN(C)C)cc9[nH]8)cc7[nH]6)CC5)[nH]c4c3)[nH]c2c1", "values": [{"measurement": "IC50", "setting": "[1]", "value": 2.6, "unit": "µM"}, {"measurement": "fold change (FC)", "setting": "[14]", "value": 1}, {"measurement": "Flu intensity", "setting": "Aliivibrio logei [2]", "value": 150000}, {"measurement": "Flu intensity", "setting": "Aliivibrio logei [3]", "value": 210000}, {"measurement": "IC50", "setting": "[4]", "value": "> 300", "unit": "µM"}, {"measurement": "Flu intensity", "setting": "Aliivibrio fischeri [5]", "value": 122000}, {"measurement": "EC50", "setting": "Human alphaherpesvirus 1", "value": 30, "unit": "µg/mL"}, {"measurement": "Drug uptake", "setting": "[6]", "value": "Active"}, {"measurement": "fold change (FC)", "setting": "[15]", "value": 3}, {"measurement": "fold change (FC)", "setting": "[16]", "value": 27}, {"measurement": "IC50", "setting": "HCT-116", "value": "> 300", "unit": "µM"}, {"measurement": "Activity", "setting": "Calf thymus DNA [7]", "value": "Active"}, {"measurement": "Activity", "setting": "Calf thymus DNA [13]", "value": "Active"}, {"measurement": "selectivity ratio at 72 h", "setting": "[8]", "value": 18}, {"measurement": "Flu intensity", "setting": "Aliivibrio fischeri [9]", "value": 110000}, {"measurement": "selectivity ratio at 72 h", "setting": "[12]", "value": 703}, {"measurement": "IC50", "setting": "MCF7", "value": "> 300", "unit": "µM"}, {"measurement": "solubility", "setting": "[10]", "value": "Soluble"}, {"measurement": "Activity", "setting": "Calf thymus DNA [11]", "value": "Active"}, {"measurement": "fold change (FC)", "setting": "[17]", "value": 8}]}, {"smiles": "CN1CCN(c2ccc3nc(-c4ccc5nc(CNC(=O)CN6CCN(CC(=O)NCc7nc8ccc(-c9nc%10ccc(N%11CCN(C)CC%11)cc%10[nH]9)cc8[nH]7)CC6)[nH]c5c4)[nH]c3c2)CC1", "values": [{"measurement": "IC50", "setting": "[1]", "value": "> 15", "unit": "µM"}]}, {"smiles": "CN(C)CCCNC(=O)c1ccc2nc(-c3ccc4nc(CN)[nH]c4c3)[nH]c2c1", "values": [{"measurement": "EC50", "setting": "Human alphaherpesvirus 1", "value": 27, "unit": "µg/mL"}, {"measurement": "selectivity ratio at 72 h", "setting": "[8]", "value": 35}, {"measurement": "selectivity ratio at 72 h", "setting": "[12]", "value": 11}]}]}
